Measurements: US6426435B1, “Substantive water-soluble bis-quaternary salts of cinnamidoalkylamines” (Galaxy Surfactants Ltd., priority 2000, dated 2002)
Like-named read-outs stand apart in the source and are kept apart here.

Assays:
[1] = Method: Virgin hair (5.0 g) were washed with 10% SLES solution and rinsed with plain water. The tresses were treated for exactly 5.0 minutes with clear shampoo (containing 2% β,β′-di (p-methoxy cinnamidopropyldimethylammonium chloride) ethyl ether) as described in Example I that was diluted five times with water. After the treatment the tresses were washed thoroughly with copious amount of water. The adsorbed quaternary was extracted from the hair surface by immersing each tress in isopropanol at 65° C. for 30 minutes. A known volume of this isopropanol/quaternary ammonium salt mixture was analysed by UV-spectroscopy to determine its absorption intensity.
[2] = solid after removal of water
Method: For purposes of the present application, water-soluble compounds are defined as being soluble in water at levels above 15% w/w.
p-Methoxy cinnamidopropyldimethylamine (263.0 g, 1.0 mole) and bis-(2-dichloroethyl)ether (71.5 g, 0.5 mole) and deionised water (334.5 ml) were charged in a pressure reactor. The air inside was flushed out by purging nitrogen. The reaction mixture was then stirred at 115° C. (pressure 3 kg/cm^2) for 36 hours. The progress of the reaction was followed by analysing the chloride content.

[3] = remark: listed apart in the source
Method: The major ingredients were mixed with heating to 50° C. until a uniform homogenous mixture was formed. The resulting mixture was then cooled to room temperature with continuous stirring. The required chelating agent, colour, perfume were added. The viscosity was adjusted to 2500 cps with sodium chloride.
The substantivity experiment was performed as described under;
All ingredients were heated together under stirring to 70° C. till the reaction mass became homogenous and transparent. The reaction mass was cooled to 40° C. and the required amounts of chelating agents, perfume and colour were added. The molten mass was cast in moulds of desired shape to yield transparent bathing bar.

[4] = UV absorption: molar extinction coefficient; type: physicochemical
Method: Ethyl p-methoxy cinnamate (206.0 g, 1.0 mole), […] (306.0 g, 3.0 mole) and sodium methoxide (2.0 g) were charged in a pressure reactor. The air inside the reactor was flushed out by purging of nitrogen. The reaction mixture was then stirred at 180° C. (this generated pressure of 18 kg/cm^2) for 36 hours. The progress of reaction was monitored by disappearance of ethyl p-methoxy cinnamate on chromatography (TLC and HPLC). The TLC was performed on aluminium coated silica gel plates (Merck-60-F-254) and viewed with a UV lamp at 254 nm. HPLC was performed using reversed phase technique on a C-18 bonded (octadecyl silane) column and 60% aqueous methanol as mobile phase (1.0 ml/min) and detection at 280 nm. The excess amine was removed under vacuum.

SMILES | substantivity ([1]; clear shampoo of Example III containing 2% compound, diluted five times with water, 5.0 minutes treatment) | deposition of quaternary on cotton fabric (substantivity) ([1]; detergent powder of Example VII (2.0% compound)) | substantivity ([1]; transparent bathing bar of Example V (2.0% compound), procedure of Example III) | water solubility [2] | compatibility with anionic surfactant ([3]; transparent bathing bar of Example V, transparency unaffected) | compatibility with anionic surfactant ([3]; transparent shampoo of Example III (SLES-2)) | molar extinction coefficient, ε [4] | molar extinction coefficient, ε ([4]; in aqueous solution at 292 nm λmax) | molar extinction coefficient, ε ([4]; in methanol, at 290 nm, in M-1·cm-1 (unit assumed))
COc1ccc(C=CC(=O)NCCC[N+](C)(C)CCOCC[N+](C)(C)CCCNC(=O)C=Cc2ccc(OC)cc2)cc1.[Cl-].[Cl-] [β,β′-di(p-Methoxy Cinnamidopropyldimethylammonium Chloride) Ethyl Ether] | 22 mg/100 g of hair | 21 mg/100 g of cotton fabric | 20 mg /100 g of hair | > 50% | total compatibility | completely compatible | 42,000 | 42,729 | 
COc1ccc(C=CC(=O)NCCCN(C)C)cc1 [p-Methoxy Cinnamidopropyldimethylamine] |  |  |  |  |  |  |  |  | 24,224
